# Data as given in patent publication EP0091995B1, “New compound having antiinflammatory, analgesic and mucoregulating activity, process for its production and relative pharmaceutical compositions” (AUSONIA FARMACEUTICI S.r.l., priority 1982, dated 1983).
# Key:
# male rabbit = assay: Mucosecretolytic activity (technique of Giraldez et al); assay type: in vivo; conditions: 500 mg/kg/os
# Excerpt: The mucosecretolytic activity has been studied in the male rabbit according to the technique of Giraldez, Grass and Bruseghini(Abstr. Comp. Int. Pharm. N. 1086-Paris 1978), by administration by the oral route, comparing AFP-695 with carboxymethylcysteine and sobrerol at the dose hereinafter stated.
# Sprague-Dawley rats = assay: Antiinflammatory activity, pleuritis by carrageenin (method of Vinegar); assay type: in vivo; conditions: oral route
# rabbits = assay: Anti-cough activity, cough induced by citric acid aerosol; conditions: mean number of cough strokes; endoperitoneal route; Codeine 12.5 mg/kg, AFP-695 150 mg/kg
# [1] = Pharmacokinetics, plasma and lung levels by gas chromatography; assay type: in vivo, rats; conditions: 100 mg/kg per os; at 30 minutes, and in some instance also at 1 hour
# Method: At the moment of treatment rats were fasting since 18 hours. Rats have been then sacrificed in groups of 4 at different times: 30 min., 1 h, 2 h, 4 h, 6 h.
# The concentration both of unchanged products and of their metabolites have been measured by gas chromatography in plasma and in the lung.
# [2] = Acute toxicity (method of Litchfield and Wilcoxon); conditions: in vivo, oral, os
# Excerpt: The acute toxicity has been determined in Swiss mouse and in Wistar rat for different administration routes, according to the method of Litchfield J.T. and Wilcoxon [J. Pharm. Exp. Therap. 96, 99-113, (1949)].
# The results obtained are reported in the following Table I; from the same it can be pointed out how AFP is endowed with a very low acute toxicity.
# Rats = assay: Gastrolesive action (gastric mucosa examination); assay type: in vivo; conditions: rats fasting 18 hours; 5 hours 30 minutes after treatment; Ibuprofen 100 mg/kg/os, AFP-695 150 mg/kg/os
# Method: 5 Hours and 30 minutes after treatments, the animals have been sacrificed and the stomach has been withdrawn for gastric mucosa examination.
# rat = assay: Antiinflammatory activity, subplantar edema by carrageenin; conditions: Ibuprofen 100 mg/kg os, AFP-695 150 mg/kg os
# Method: Tests have been performed on the rat, employing the test of the subplantar edema induced by carrageenin. […] After edema induction, the animals of each group have been controlled, every 60 minutes for 5 consecutive hours, in order to point out the evolution of the inflammatory process.
# [3] = Solubility of the product of the Example; assay type: physicochemical
# Excerpt: Its structure is confirmed by analytical and spectroscopical data. • Elemental analysis: • for C23H3403(M.W. = 358.49) • calcd. % C = 77.05; H = 9.56 • found % C = 76.88; H = 9.60. • I.R. Spectrum • (liquid film; absorption band values are expressed in cm^-1): • stretch 0-H 3400-3250 • stretch C=O 1735 • stretch C-0 1205 • H^1 NMR Spectrum • (recorded in CDCI3, internal reference TMS; values of the chemical shifts are expressed in δ): • 0.65-1.2(m, 12H, -CH(CH3)2, C(CH3)2); • 1.3-2 (m, 12H, CH2―CH―CH2, CH2-CH, CH3-CH, OH mobile); • 2.3 (d, 3H, =C-CH3); • 3.5 (q, 1 H, CH3-CH-CO); • 4.7-5 (m, 1H,―CH―O―CO); • 5.3-5.6 (m, 1H, =CH-CH2); • 6.6-7 (m, 4H, aromatics).
# male Wistar rat = assay: Bronchosecretogogue activity (Mawatari technique); assay type: in vivo; conditions: 500 mg/kg/os; FlNa = Sodium fluoresceine
# Excerpt: The bronchosecretogogue activity has been determined in male Wistar rat by per os administration according to the method of Mawatari [Mawatari H., Kagoshima Daigaku Igaku-Zasshi, 27, 561 (1976)], comparing AFP-695 with carboxymethylcysteine and sobrerol at the doses hereinafter stated.
# mouse = assay: Analgesic activity, writhings by phenylquinone; assay type: in vivo; conditions: 100 mg/kg os
# Method: The test of writhings by phenylquinone in the mouse has been used.
# The two drugs have been administered per os 30 minutes […] intraperitoneal injection of phenylquinone.
smiles,measurement,setting,value
"CC1=CCC(C(C)(C)O)CC1OC(=O)C(C)c1ccc(CC(C)C)cc1 (stereo not drawn) [AFP-695, 2-methyl-5-(1-hydroxy-1-methylethyl)-cyclohex-2-enyl 2-(4-isobutylphenyl)propionate]",% Increase of secretion in comparison with controls,male rabbit,35.7%
same,decrease of leucocytes number,"Sprague-Dawley rats; 24th hour, equiponderant doses",60.89%
same,"decrease of the exudate volume, in comparison with control","Sprague-Dawley rats; 24th hour, equiponderant doses",51.02%
same,decrease of the number of leucocytes,Sprague-Dawley rats; fifth hour after treatment,70.91%
same,decrease of the exudate,"Sprague-Dawley rats; fifth hour after treatment, 30 minutes before intrapleural injection",41.84%
same,% Inhibition in comparison with controls,rabbits,78.1%
same,unchanged AFP-695 in plasma,[1],has been found in plasma
same,LD50,"[2]; Swiss, mouse",1800 mg/kg
same,LD50,"[2]; Wistar, rat",2200 mg/kg
same,Mean ulcers size,Rats,0.9 ± 0.3 mm
same,AREA % Inhibition in comparison with controls,rat,42.8%
same,AREA Absolute value,rat; area of limb volume over 0-5 hours,156.2
same,MEAN LIMB VOLUME AT DIFFERENT HOURS AFTER TREATMENT 0,"rat; hour 0, 30 minutes before carrageenin",22.8
same,MEAN LIMB VOLUME AT DIFFERENT HOURS AFTER TREATMENT 1,rat; hour 1,27.2
same,MEAN LIMB VOLUME AT DIFFERENT HOURS AFTER TREATMENT 2,rat; hour 2,29.6
same,MEAN LIMB VOLUME AT DIFFERENT HOURS AFTER TREATMENT 3,rat; hour 3,31.4
same,MEAN LIMB VOLUME AT DIFFERENT HOURS AFTER TREATMENT 4,rat; hour 4,32.6
same,MEAN LIMB VOLUME AT DIFFERENT HOURS AFTER TREATMENT 5,rat; hour 5,34.9
same,solubility in the common organic solvents,[3]; common organic solvents,easily soluble in the common organic solvents
same,solubility in water,[3]; water,substantially insoluble in water
same,% Increase of FlNa(*) in comparison with controls,male Wistar rat,51.6%
same,% Inhibition in comparison with controls,mouse,71.09%
same,Mean No. of writhings,mouse,3.7 ± 1.2
same,No. animals with writhings,mouse,3/10
"COc1ccc2c3c1O[C@H]1[C@@H](O)C=C[C@H]4[C@@H](C2)N(C)CC[C@@]341 [Codeine, codeine, reference compound]",% Inhibition in comparison with controls,rabbits,76.7%
"CC(C)Cc1ccc(C(C)C(=O)O)cc1 (stereo not drawn) [Ibuprofen, 2-(4-isobutylphenyl)-propionic acid, reference compound]",decrease of leucocytes number,"Sprague-Dawley rats; 24th hour, equiponderant doses",5.58%
same,Mean ulcers size,Rats,9.6 ± 1.8 mm
same,AREA % Inhibition in comparison with controls,rat,44.2%
same,% Inhibition in comparison with controls,mouse,89.84%
same,Mean No. of writhings,mouse,1.3 ± 0.5
same,No. animals with writhings,mouse,1/10
"CC1=CCC(C(C)(C)O)CC1O (stereo not drawn) [Sobrerol, 2-methyl-5-(1-hydroxy-1-methyl-ethyl)-2-cyclohexen-1-ol, reference compound]",% Increase of secretion in comparison with controls,male rabbit,36.8%
same,% Increase of FlNa(*) in comparison with controls,male Wistar rat,33.4%
